# In patent US20200157135A1, “SIDE-CHAIN MODIFIED ERGOSTEROL AND STIGMASTEROL DERIVATIVES AS LIVER X RECEPTOR MODULATORS” (Ospedale San Raffaele srl, priority 2017, published 2020):
# Read-outs that look alike come from different tables or passages of the source.
# Legend:
# hLXRα = biological target: T1, hLXRα (Homo sapiens, UniProt Q13133); assay: luciferase assay with GAL-4 chimeric hLXRα receptor in human embryonic kidney 293 cells; format: cell-based; conditions: for Emax: HEK293, 24 h, read-out: LXRα Efficacy (%) ± SD; for LXR isoform selectivity profile: LXRα versus LXRβ, GAL4 luciferase assays
# T1 sequence (Q13133 209-447 limits assumed): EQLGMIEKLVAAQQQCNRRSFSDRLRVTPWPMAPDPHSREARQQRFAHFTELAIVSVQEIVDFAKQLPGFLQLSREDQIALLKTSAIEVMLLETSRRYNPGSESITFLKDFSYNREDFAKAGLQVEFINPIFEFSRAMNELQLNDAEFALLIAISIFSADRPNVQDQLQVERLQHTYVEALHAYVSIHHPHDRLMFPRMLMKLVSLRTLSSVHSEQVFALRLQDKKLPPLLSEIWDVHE
# Procedure: (§1) All the synthesized compounds were first tested for their ability to activate LXRs by using luciferase assays with GAL-4 chimeric receptors. These were performed by co-transfecting plasmids encoding hLXRα- and β-binding domains fused to GAL-4, with the respective responsive element conjugated with the luciferase reporter gene into the human embryonic kidney 293 cells.
# (§2) Cell Culture and Co-transfection Assays. Human embryonic Kidney 293 cells (American Type Culture Collection) were cultured in Dulbecco's Modified Eagle's medium containing 10% of fetal bovine serum at 37° C. in humidified atmosphere of 5% CO2. HEK293 cells (4×10^4 cells per well) were transiently transfected in 48 well plate with the reporter plasmids pMH100X4-TK-luc (100 ng/well), Renilla (22 ng/well) together with 100 ng/well of pCMX-Gal4-RXR, pCMX-Gal4-PPAR-γ, pCMX-Gal4-PXR, pFA-CMV-FXR pCMX-Gal4-LXR-α or pCMX-Gal4-LXR-β plasmids using X-tremeGENE 9 DNA Transfection Reagent (Roche). Six hours after transfection, the cells were treated with the appropriate compound for 24 hours. Luciferase activities were analyzed by luciferase Dual Reporter Assay Systems (Promega) according to the manufacturer's protocol. GAL4-LXRs, GAL4-PPAR-γ, GAL4-RXR and TK-MHC100-luc plasmids were described in Villablanca et al.49 GAL4-PXR was a kind gift of Dr. Enrique Sainz (The Scripps Research Institute, La Jolla, USA). GAL4-FXR was a kind gift of Dr. Daniel Merk (Goethe-University Frankfurt am Main). The results obtained by luciferase assays and reported in Table 1 are from three to five independent experiments.
# (§3) Statistical analysis. Data are expressed as mean±SEM and were analyzed for significance by ANOVA with Dunnet's multiple comparison tests. The analysis was performed with Prism software. Data in Table 1 are expressed as EC50±SD. In particular, the standard deviations were obtained by calculating the mean of the EC50 of each experiment (three to five independent experiments). The efficacy (%) of the compounds was calculated as the percentage of the compound effect, in terms of LXRα or β activation, versus 8 μM of 22R—HC±SD. The analyses were performed with Prism software.
# hLXRβ = biological target: T2, hLXRβ (Homo sapiens, UniProt P55055); assay: luciferase assay with GAL-4 chimeric hLXRβ receptor in human embryonic kidney 293 cells; format: cell-based; conditions: for Emax: HEK293, 24 h; for beta/alfa efficacy ratio: LXRβ efficacy over LXRα efficacy
# T2 sequence (P55055 222-460 limits assumed): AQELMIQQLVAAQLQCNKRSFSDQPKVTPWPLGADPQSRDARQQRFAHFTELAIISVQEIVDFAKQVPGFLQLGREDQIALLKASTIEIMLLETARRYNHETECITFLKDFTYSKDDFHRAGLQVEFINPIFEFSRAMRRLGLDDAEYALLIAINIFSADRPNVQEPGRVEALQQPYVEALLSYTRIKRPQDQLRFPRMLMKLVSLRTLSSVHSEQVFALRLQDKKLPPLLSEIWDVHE
# Procedure: as §1, §2, §3
# hPXR = assay: luciferase assay GAL4-hPXR in human embryonic kidney 293 cells; format: cell-based; conditions: compounds at 10 μM
# Procedure: Human embryonic kidney 293 cells were co-transfected with GAL4-hRXR (A), GAL4-hPPARγ (B), GAL4-hPXR (C) and GAL4-hFXR (D) expression plasmids together with GAL4 responsive element pMHC100X4-TK-luc and Renilla plasmids. Cells were incubated with vehicle (DMSO), PFMs at the concentration of 10 μM, and the nuclear receptor specific ligands 9cis retinoic acid (100 nM) (A), Rosiglitazone (RSG 100 nM) (B), T0901317 (100 nM) (C) and GW4064 (100 nM) (D) for six hours. The values represent mean±S.D. RLA, relative luciferase activity.
# The selectivity of our compounds within the nuclear receptor superfamily was also evaluated by luciferase assays using GAL4-RXR, -PPARγ, -PXR and -FXR plasmids.
# as §2
# MCP-1/CCL2 = assay: qPCR of CCL2 expression in differentiated U937 cells treated with LPS; format: cell-based, human; conditions: differentiated U937, 6 hours, 10 μM in combination with LPS (100 ng/ml)
# Procedure: (§4) U937 cells differentiated with PMA for 72 hours were treated with LPS (100 ng/ml) in combination with T0901317 (10 μM) or with the title compounds (10 μM). […] (n=3/group). *p<0.05, **p<0.01, ***p<0.001.
# (§5) Quantitative Real-Time-PCR. U937 cell line was differentiated in foam macrophages with phorbol 12-myristate 13-acetate (PMA) 10 ng/ml (Sigma) for 72 hours at 37° C. in […] at the concentration of 3×10^6 cells in 10 ml RPMI 10% FBS. At day 3 nuclear receptor ligands were added for 6 hours. HepG2 cells were treated with the ligands as described by Quinet et al.22 Total RNA was purified by TRIZOL (Invitrogen, Carlsbad, Calif., USA). Reverse transcription was performed incubating 2 μg of total RNA 1 hour at 42° C. with MLV-reverse transcriptase (Promega). Quantitative PCR was performed using Sybr Green Master Mix (Applied Biosystems) and real-time PCR (Viia 7 Real Time PCR System, Applied Biosystems). All PCR reactions were done in triplicate. The comparative Ct method was used to quantify transcripts that were normalized for human GAPDH. the following primer pairs were used: […]
# TNFα = assay: qPCR of TNFα expression in differentiated U937 cells treated with LPS; format: cell-based, human; conditions: differentiated U937, 6 hours, 10 μM in combination with LPS (100 ng/ml)
# Procedure: as §4, §5
# SCD1 = assay: qPCR of SCD1 expression in PMA-differentiated U937 cells; format: cell-based, human; conditions: U937 differentiated with PMA 72 h; 10 μM, 6 hours
# Procedure: (§6) U937 cells differentiated with PMA for 72 hours were treated with T0901317 (10 μM), 22R—HC (3) or with the tested compound (10 μM). […] (n=3/group). *p<0.05, **p<0.01, ***p<0.001.
# (§7) LXR agonists induce the expression of target genes, which are involved in cholesterol homeostasis, particularly in the reverse cholesterol transport pathway.43 Indeed, LXR agonists induce the expression of ABCA1 both in macrophages and in many tissues of the periphery such as the intestine.44 Moreover, ABCA1 regulates cholesterol efflux to APOAI acceptors.45 In the liver, LXR activation promotes the biosynthesis of fatty acids, a process also termed as de novo lipogenesis by inducing the expression of the master regulator of hepatic lipogenesis sterol-regulatory element-binding protein 1C (SREBP-1c), as well as several downstream genes in the SREBP-1c pathway, including steroyl CoA desaturase 1 (SCD1) and fatty acid synthase (FASN).43 Therefore, it was investigated, by quantitative PCR (qPCR), the expression of ABCA1, SREBP1c, FASN, and SCD1, by using RNA from monocytic U937 cells (FIG. 3) and from hepatic HepG2 cells (FIG. 4) stimulated with our compounds, the non-steroidal agonist T0901317 or the endogenous ligand 22R—HC (3) as positive controls. […] Then, the induction of genes involved in the lipogenesis using the hepatic cell line HepG2. 43,22 was evaluated. […] Over the time, indeed, substantial efforts have been dedicated to the identification of LXR ligands able to turning on ABC transporter genes, without affecting lipogenic genes levels. This task is still one of the major challenge to the discovery of a clinically useful LXR modulator for atherosclerosis.
# as §5
# ABCA1 = assay: qPCR of ABCA1 expression in PMA-differentiated U937 cells; format: cell-based, human; conditions: U937 differentiated with PMA 72 h; 10 μM, 6 hours
# Procedure: as §6, §7, §5
# SREBP1c = assay: qPCR of SREBP1c expression in PMA-differentiated U937 cells; format: cell-based, human; conditions: U937 differentiated with PMA 72 h; 10 μM, 6 hours
# Procedure: as §6, §7, §5
# [1] = GAL4-hLXRα luciferase, HEK293, dose-response 32-1 μM, mean of three-five independent experiments, read-out: LXRα EC50 (μM) ± SD
# [2] = % of compound effect versus 8 μM of 22R-HC
# [3] = GAL4-hLXRβ luciferase, HEK293, dose-response 32-1 μM, mean of three-five independent experiments, read-out: LXRβ EC50 (μM) ± SD
# [4] = read-out: LXRβ Efficacy (%) ± SD, % of compound effect versus 8 μM of 22R-HC
Compound,EC50 (hLXRα; [1]) [µM],Emax (hLXRα; [2]) [%],EC50 (hLXRβ; [3]) [µM],PXR activation (hPXR),LXR isoform selectivity profile (hLXRα),inhibition of CCL2 expression (MCP-1/CCL2),Emax (hLXRα) [%],Emax (hLXRβ; [4]) [%],also measured
"CC(C)[C@@H](C)[C@H]1O[C@@H]1[C@@H](C)[C@H]1CC[C@H]2C3=CC=C4C[C@@H](O)CC[C@]4(C)[C@H]3CC[C@]12C [Compound 15, (22R,23R)-22,23-Epoxyergosta-5,7-diene-3β-ol]",4.11 ± 0.31,93.2 ± 5.8,7.2 ± 0.94,slight activation of PXR,,,,,"Emax (hLXRβ; % of compound effect versus 8 μM of 22R-HC, read-out: LXRβ Efficacy (%) ± SD): 30.4 ± 10.6%"
"CC(C)[C@@H](C)CC(=O)[C@@H](C)[C@H]1CC[C@H]2C3=CC=C4C[C@@H](O)CC[C@]4(C)[C@H]3CC[C@]12C [Compound 28, 3β-Hydroxyergost-5,7-diene-22-one]",8.51 ± 0.42,70.2 ± 3.9,,,selective LXRα agonists,,,,
"CC(C)[C@@H](C)[C@@H](O)C[C@@H](C)[C@H]1CC[C@H]2C3=CC=C4C[C@@H](O)CC[C@]4(C)[C@H]3CC[C@]12C [Compound 21, (23S)-3β-Ergost-5,7-diene-3,23-diol]",8.07 ± 1.6,159 ± 41.3,,slight activation of PXR,selective LXRα agonists,same grade of potency of the positive control T0901317,,,inhibition of TNFα expression (TNFα): the most active
"CC[C@@H](C(C)C)[C@H](O)C[C@@H](C)[C@H]1CC[C@H]2[C@@H]3CC=C4C[C@@H](O)CC[C@]4(C)[C@H]3CC[C@]12C [Compound 19, (23R)-3β-Stigmast-5-ene-3,23-diol]",3.2 ± 0.54,,2.7 ± 1.16,,,same grade of potency of the positive control T0901317,,,SCD1 expression (SCD1): poor activators of SREBP1c and SCD1; ABCA1 expression (ABCA1): strong induction of ABCA1 expression; inhibition of TNFα expression (TNFα): the most active; SREBP-1c up-regulation (SREBP1c): poor activators of SREBP1c and SCD1
CC[C@](O)(CC[C@@H](C)[C@H]1CCC2C3CC=C4C[C@@H](O)CC[C@]4(C)C3CC[C@@]21C)C(C)C (stereo partly drawn) [Compound 29],,,,,,,11 ± 4.08,48.4 ± 5,EC50 (hLXRα): 3.72 ± 0.5 µM; EC50 (hLXRβ): 3.21 ± 0.6 µM; beta/alfa efficacy ratio (hLXRβ): 4.4
"CC(C)[C@@H](C)[C@H](O)C[C@@H](C)[C@H]1CC[C@H]2C3=CC=C4C[C@@H](O)CC[C@]4(C)[C@H]3CC[C@]12C [Compound 23, (23R)-3β-Ergost-5,7-diene-3,23-diol]",15.8 ± 0.65,63.9 ± 26.9,,,,,,,
"CC[C@@H](C(C)C)[C@@H]1O[C@H]1[C@@H](C)[C@H]1CC[C@H]2[C@@H]3CC=C4C[C@@H](O)CC[C@]4(C)[C@H]3CC[C@]12C [Compound 14, (22S,23S)-22,23-Epoxystigmast-5-ene-3β-ol]",16.4 ± 0.62,,12.7 ± 2.7,,,,56.8 ± 4.6,36.3 ± 3,
"C=C[C@@](O)(CC[C@@H](C)C1CCC2C3CC=C4C[C@@H](O)CC[C@]4(C)C3CC[C@@]21C)C(C)C (stereo partly drawn) [Compound 12, 24(S)-saringosterol, reference compound]",,,,,,,43.4 ± 17.6,61 ± 17.4,beta/alfa efficacy ratio (hLXRβ): 1.4
"CC(C)[C@@H](C)C[C@H](O)[C@@H](C)[C@H]1CC[C@H]2C3=CC=C4C[C@@H](O)CC[C@]4(C)[C@H]3CC[C@]12C [Compound 22, (22S)-3β-Ergost-5,7-diene-3,22-diol]",6.61 ± 1.69,,1.96 ± 0.1,slight activation of PXR,,same grade of potency of the positive control T0901317,,,
"CC(C)[C@@H](C)C(=O)C[C@@H](C)[C@H]1CC[C@H]2C3=CC=C4C[C@@H](O)CC[C@]4(C)[C@H]3CC[C@]12C [Compound 27, 3β-Hydroxyergost-5,7-diene-23-one]",5.58 ± 0.3,151 ± 4.8,,,selective LXRα agonists,,,,
